# Measured values as given in patent US20210023012A1, “Solid Pharmaceutical Compositions for Treating HCV” (AbbVie Inc., priority 2019, published 2021).
# Marks after values point to notes of the source that are not given here.
# How the values were obtained:
# [1] = Pharmacokinetic properties in healthy subjects; format: in vivo, human; settings: for Tmax: oral, median, single doses
# [2] = Phase 1 single-dose crossover: bioavailability and food effect of Compound 1/Compound 2 bilayer tablets; format: in vivo, human; settings: film-coated vs uncoated bilayer tablets, additional studies
# clinical = settings: human, in vivo
# From the text: Target AUC was derived from the geometric mean of AUC values from a population of adult subjects who received Compound 1 and Compound 2.
# [3] = Single-dose crossover: bioavailability of Compound 1/Compound 2 mini-tablets; format: in vivo, human; settings: for Cmax / AUC(0-inf) / AUC(0-t) / half-life / Tmax: human, in vivo, oral, N = 14; for Cmax / AUC(0-inf) / AUC(0-t): geometric mean; for half-life: harmonic mean; for Tmax: median
# Method: In comparison, when administered with food, the mini-tablets provided an AUC that was only 5% lower than that provided by the regular tablets. […] All of the reference AUCs of the regular tablets were measured under fasting conditions.
# 14 subjects were enrolled in this study and dosed with co-formulated Compound 1/Compound 2 in mini-tablets. One subject spilled 4 mini-tablets (out of 100-150 total mini-tablets) during dosing of Period 2 (Regimen G) and was not excluded from the analysis. The mini-tablets were prepared according to a process similar to that described in Example 2.
# [4] = Phase 1 single-dose crossover: bioavailability and food effect of Compound 1/Compound 2 bilayer tablets; format: in vivo, human; settings: for Cmax / AUC(0-inf) / AUC(0-t) / half-life / Tmax: human, in vivo, oral, N = 23; for Cmax / AUC(0-inf) / AUC(0-t): geometric mean; for half-life: harmonic mean; for Tmax: median
# Method: Phase 1, single-dose, four-period, randomized, complete crossover clinical trials were conducted to determine the bioavailability and food effect of the Compound 1/Compound 2 film-coated bilayer tablets. Tablets described in Table 1b were used in Regimens A, B and C, and separate tablets containing either Compound 1 or Compound 2 were used in Regimen D. Subjects took a single dose of Compound 1/Compound 2 on Day 1 of each Period. There was a washout of 4 days between doses. • i. Regimens A and D: study drugs were taken under fasting conditions. • ii. Regimen B: study drugs were taken approximately 30 minutes after start of moderate-fat breakfast (about 30% calories from fat). • iii. Regimen C: study drugs were taken approx. 30 minutes after start of high-fat breakfast (50% calories from fat). For Regimens A, B and C, the single dose consisted of three tablets of Table 1b, each tablet contains 100 mg/40 mg Compound 1/Compound 2. For Regimen D, the single dose contained three tablets of Compound 1, each of which contained 100 mg Compound 1, as well as three tablets of Compound 2, each of which contained 40 mg Compound 2. [table] [table]
# Blood-to-plasma ratio = format: in vitro ADME; settings: human, whole blood/plasma
# [5] = Mass balance studies with [14C] compound, single dose; format: in vivo, human; settings: single dose of [14C] compound
# [6] = Predicted PK exposures (Pop-PK AUC) in pediatric subjects; format: in vivo; parameters: concentration or dose not given beside the values; settings: human, oral
# From the text: The predicted PK exposures (“Pop-PK AUC”) of Compound 1/Compound 2 based on all PK information collected in the study (including data from other study weeks) is shown in Table 13 and Table 13a.
# [7] = Binding to human plasma proteins; format: in vitro ADME; settings: read-out: % Bound to human plasma proteins (converted)
# [8] = Steady-state pharmacokinetics of film-coated granules in pediatric subjects by age group; format: in vivo, human; parameters: Ctrough: unit not given here; settings: for Ctrough / AUC: Week 2; for AUC: human, oral, film-coated granules
# Method: The study was designed to assess the steady state AUC and to assess the pharmacokinetics (PK) of Compound 1/Compound 2 in pediatric subjects by age group. […] Subjects were enrolled in this study and dosed with film-coated granules containing Compound 1/Compound 2 as generally described above in Example 3. [table] An intensive PK sample draw was done at the Week 2 visit with blood samples taken immediately prior to dose (0 hour) and at 2, 4, 6, and 12 hours post dose.
# OATP1B1/3 = experiment: Substrate of transporter OATP1B1/3; format: in vitro ADME
# [9] = mean systemic exposure with moderate to high fat meals
# [10] = Regimen F: single dose mini-tablets 200 mg/120 mg, fasting
# [11] = Regimen G: single dose mini-tablets 200 mg/120 mg, non-fasting
# [12] = Regimen J: two Compound 1 tablets (100 mg each) and three Compound 2 tablets (40 mg each), fasting
# [13] = Regimen A: single dose bilayer tablets 300 mg/120 mg, fasting
# [14] = Regimen B: single dose bilayer tablets 300 mg/120 mg with moderate fat breakfast
# [15] = Regimen C: single dose bilayer tablets 300 mg/120 mg with high fat breakfast
# [16] = Regimen D: single dose separate Compound 1 tablets (3 × 100 mg) and Compound 2 tablets (3 × 40 mg), fasting
compound,measurement,setting,value
CC(C)(C)[C@@H]1NC(=O)O[C@@H]2CCC[C@H]2OC/C=C/C(F)(F)c2nc3ccccc3nc2O[C@@H]2C[C@@H](C(=O)N[C@]3(C(=O)NS(=O)(=O)C4(C)CC4)C[C@H]3C(F)F)N(C2)C1=O [Compound 1],Metabolism,[1]; Biotransformation,Secondary
same,Major route of elimination,"[1]; human, in vivo",Biliary
same,Tmax,"[1]; human, in vivo, healthy subjects, read-out: Tmax of granules",3 to 4 h
same,Tmax,"[1]; human, in vivo, healthy subjects, read-out: Tmax of tablets",5 h
same,half-life,"[1]; human, in vivo, healthy subjects, read-out: t1/2 at steady-state",360 to 540 min
same,"Effect of meal (relative to fasting) on adult tablets, ↑",[1]; [9],↑ 83-163%
same,"Effect of meal (relative to fasting) on granules, ↑",[1]; [9],↑ 131-168%
same,Impact of film-coating on bioavailability,[2],minimal impact
same,AUC,clinical,4800 ng·h/mL
same,Effect of administration with food on bioavailability,[3]; co-formulated mini-tablets,significantly increased
same,Cmax,"[3]; Regimen F: single dose mini-tablets 200 mg/120 mg Compound 1/Compound 2, fasting",123 ng/mL
same,AUC(0-inf),[3]; [10],432 ng·h/mL
same,AUC(0-t),[3]; [10],428 ng·h/mL
same,half-life,[3]; [10],337 min
same,Tmax,[3]; [10],1 h
same,Cmax,"[3]; Regimen G: single dose mini-tablets 200 mg/120 mg Compound 1/Compound 2, non-fasting",166 ng/mL
same,AUC(0-inf),[3]; [11],704 ng·h/mL
same,AUC(0-t),[3]; [11],699 ng·h/mL
same,half-life,[3]; [11],385 min
same,Tmax,[3]; [11],1.75 h
same,Cmax,"[3]; Regimen J: single dose two Compound 1 tablets (100 mg each) and three Compound 2 tablets (40 mg each), fasting",212 ng/mL
same,AUC(0-inf),[3]; [12],742 ng·h/mL
same,AUC(0-t),[3]; [12],738 ng·h/mL
same,half-life,[3]; [12],356 min
same,Tmax,[3]; [12],1.5 h
same,AUC of mini-tablets lower than that of regular tablets (fasting),"[3]; mini-tablets with food, 200 mg Compound 1",5%
same,AUC of mini-tablets lower than that of regular tablets (fasting),"[3]; mini-tablets without food, 200 mg Compound 1 / 120 mg Compound 2, same solid dispersion formulation",41%
same,Effect of administration with food on bioavailability,[4]; bilayer tablets,significantly improved
same,Cmax,"[4]; Regimen A: single dose bilayer tablets 300 mg/120 mg (3 × 100 mg/40 mg), fasting",294 ng/mL
same,AUC(0-inf),[4]; [13],1150 ng·h/mL
same,AUC(0-t),[4]; [13],1150 ng·h/mL
same,half-life,[4]; [13],360 min
same,Tmax,[4]; [13],3 h
same,AUC(0-inf),[4]; [14],3040 ng·h/mL
same,AUC(0-t),[4]; [14],3040 ng·h/mL
same,Cmax,[4]; [14],937 ng/mL
same,half-life,[4]; [14],360 min
same,Tmax,[4]; [14],4 h
same,AUC(0-inf),[4]; [15],2120 ng·h/mL
same,AUC(0-t),[4]; [15],2110 ng·h/mL
same,Cmax,[4]; [15],633 ng/mL
same,half-life,[4]; [15],378 min
same,Tmax,[4]; [15],5 h
same,AUC(0-inf),[4]; [16],2620 ng·h/mL
same,AUC(0-t),[4]; [16],2620 ng·h/mL
same,Cmax,[4]; [16],803 ng/mL
same,half-life,[4]; [16],342 min
same,Tmax,[4]; [16],2 h
same,blood plasma ratio,Blood-to-plasma ratio,0.57
same,% of dose excreted in faeces,[5],92.1^d %
same,% of dose excreted in urine,[5],0.7%
same,AUC,"[6]; blood, Table 13, 3 to <6 years old, N 10, predicted",6310 ng·h/mL
same,AUC,"[6]; blood, Table 13, 6 to <9 years old, N 9, predicted",5770 ng·h/mL
same,AUC,"[6]; blood, Table 13, 9 to <12 years old, N 10, predicted from all PK information collected in the study",5180 ng·h/mL
same,AUC,"[6]; in vivo, Table 13a, 3 to <6 years old, N 10, predicted",8990 ng·h/mL
same,AUC,"[6]; in vivo, Table 13a, 6 to <9 years old, N 9, predicted",5160 ng·h/mL
same,AUC,"[6]; in vivo, Table 13a, 9 to <12 years old, N 10, predicted",8120 ng·h/mL
same,fraction unbound,[7],0.025
same,Ctrough,"[8]; 3 to <6 years old, post-adjustment 150 mg/60 mg, N 10",9.8
same,Ctrough,"[8]; 6 to <9 years old, post-adjustment 200 mg/80 mg, N 9",8.2
same,Ctrough,"[8]; 9 to <12 years old, post-adjustment 250 mg/100 mg, N 10",17.0
same,AUC,"[8]; blood, 3 to <6 years old, post-adjustment, 3 sachets, 150 mg/60 mg, N 10, read-out: AUC",6700 ng·h/mL
same,AUC,"[8]; blood, 6 to <9 years old, post-adjustment, 4 sachets, 200 mg/80 mg, N 9, read-out: AUC",5970 ng·h/mL
same,AUC,"[8]; blood, 9 to <12 years old, post-adjustment, 5 sachets, 250 mg/100 mg Compound 1/Compound 2, N 10, read-out: AUC",8670 ng·h/mL
same,AUC,"[8]; in vivo, 3 to <6 years old, pre-adjustment, 3 sachets, 120 mg/45 mg, read-out: AUC, Geometric Mean",3030 ng·h/mL
same,AUC,"[8]; in vivo, 6 to <9 years old, pre-adjustment, 4 sachets, 160 mg/60 mg, read-out: AUC, Geometric Mean",1680 ng·h/mL
same,AUC,"[8]; in vivo, 9 to <12 years old, pre-adjustment, 5 sachets, 200 mg/75 mg Compound 1/Compound 2, read-out: AUC, Geometric Mean",4070 ng·h/mL
same,Exposures in children aged 3 to <12 years vs adolescents 12 to <18 years and adults from Phase 2/3 studies,[8]; recommended doses according to body weight,comparable
same,Substrate of transporter,OATP1B1/3,OATP1B1/3
